# Where two headings read alike, the source gives them in different places.
# Legend:
# [1] = Safety and tolerability assessments in healthy volunteers; assay type: in vivo, human
# Method: All adverse events were recorded with an evaluation of their severity and imputability to the study drug. Each volunteer received a full medical examination at screening and at the end of the study. Visual analogue scales (VAS) on paper support recorded the intensity of 12 potential symptoms (abdominal pain, appetite, nausea, taste of sparkling water, fatigue, headache, dyspnea, dizziness, paresthesia, difficulty in concentration, irritability, and depression) predrug (0 hour) at 0.5, 1, 2, 4, 6, 8, 10, and 24 hours postdose. Vital signs (supine blood pressure, heart rate, body temperature, and respiratory frequency) were measured predose and at 1, 2, 4, 6, 8, 10, and 24 hours postdose. Laboratory parameters, drug screen, and urinalysis were performed at screening and at study end.
# [2] = Noncompartmental pharmacokinetics after single oral doses in healthy volunteers; assay type: in vivo, human; details: for half-life / Cmax / AUC / Tmax / CL renal: male, human; for AUC: read-out: AUC(0‐inf); for Tmax: read-out: Median tmax (range); for CL renal / Recovery unchanged: urine; for CL renal: read-out: Renal clearance (converted)
# Source text: Eligible subjects for the clinical study were healthy adult male volunteers aged 18‐45 years, with a body weight ranging between 55 and 95 kg and a body mass index of 18‐29 kg/m^2. Subjects with a history or evidence of clinically significant diseases or interfering conditions were excluded. Other exclusion criteria included: history of any clinically significant laboratory value including serology for hepatitis and HIV, relevant alcohol or drug abuse, recent acute illness, or use of any medication the week prior to study.
# Single oral doses of 50, 100, and 200 mg of sultiame (Ospolot®, immediate‐release coated tablets) were administered in fasting conditions, in open‐label, during periods 1, 2, and 3, respectively, at 4‐6 weeks interval. On each period, serial plasma and whole blood samples were collected predose, then at 15, 30 min, 1, 2, 3, 4, 5, 6, 8, 10, 24, 48, 72 168, 336, and 504 hours postdose. Plasma and whole blood samples were stored at − 80°C until analysis. Hematocrit was measured using a microhematocrit centrifuge machine (Haematokrit 200®, Hettich AG, Bäch, Switzerland) on each occasion to calculate intraerythrocytic concentrations. Urine PK samples were collected in 6 fractions, before dosing, from 0‐2, 2‐4, 4‐8, 8‐10, and 10‐24 hours postdose. Urine pH was measured on each fraction.
# The quantification of sultiame in whole blood, plasma, and urine was performed using a high‐performance liquid chromatography coupled to tandem triple quadrupole mass spectrometry (LC‐MS/MS) method developed and validated purposely for the trial. Briefly, 300 µL of methanol (MeOH) containing the internal standard (IS) sultiame‐D4 (Toronto Research Chemicals, Canada) was added to 100 µL of human plasma, hemolyzed whole blood, or hemolyzed red blood cells, for protein precipitation. Urine samples were processed similarly. After vortex, sonication for 30 seconds, and centrifugation steps, 250 µL of supernatant was transferred into a glass vial with insert, followed by dilution with 250 µL of pure water and a final vortex step, prior to LC‐MS/MS analysis. Chromatographic analyses were carried out on a XSelect HSS T3 column (Waters, Milford, MA, USA) using a water‐acetonitrile gradient over 5 minutes. Detection was performed with a triple quadrupole mass spectrometer (TSQ Quantum Ultra, ThermoFisher Scientific, Waltham, MA, USA) using the m/z transitions 289.0 → 225.1 for sultiame, and 293.0 → 229.1 for sultiame‐D4. Lower limits of detection and quantification of the method were 0.001 and 0.01 µg/mL, respectively, with a dynamic range extending up to 50 µg/mL. […] Deviations from nominal concentration (inaccuracy) of internal QCs were comprised within − 1.9 to + 11.7% over the calibration range. […] Metabolites, whose chemical structure is still elusive, were not determined.
# Erythrocytic concentrations (Cery) were deduced from whole blood and plasma measurements as: Cery=Cwhole blood-Cplasma·1-Ht/Ht
# Plasma, whole blood, and urine sultiame PK parameters were first computed for each volunteer using standard noncompartmental calculations with Stata® (version 13, StataCorp. 2013, Stata Statistical Software, College Station TX, USA).
# The area under the curve for a single dose (AUC0‐inf) was calculated using the log trapezoidal rule with extrapolation to infinity. The terminal rate constant ( λz ) was derived from a two‐exponential model curve. CL/F was calculated as the dose divided by AUC0‐inf, the half‐life (t1/2) as ln(2)/ λz , and V/F as (CL/F)/ λz .
# [3] = parameters: method as in earlier work; details: manufacturer's information ref 8; cited from earlier work
# [4] = single oral doses 50, 100, 200 mg
# [5] = plasma, single oral dose 50 mg, n = 4, geometric mean (CV%)
# [6] = plasma, single oral dose 100 mg, n = 4, geometric mean (CV%)
# [7] = plasma, single oral dose 200 mg, n = 4, geometric mean (CV%)
# [8] = single oral dose 50 mg, n = 4, geometric mean (CV%)
# [9] = single oral dose 100 mg, n = 4, geometric mean (CV%)
# [10] = single oral dose 200 mg, n = 4, geometric mean (CV%)
# [11] = whole blood, single oral dose 50 mg, n = 4, geometric mean (CV%)
# [12] = whole blood, single oral dose 100 mg, n = 4, geometric mean (CV%)
# [13] = whole blood, single oral dose 200 mg, n = 4, geometric mean (CV%)
smiles,measurement,setting,value
NS(=O)(=O)c1ccc(N2CCCCS2(=O)=O)cc1 [Sultiame],transient facial and limb paresthesia,"[1]; after intake of the highest dose of 200 mg, four subjects",reported by three subjects
same,gastrointestinal and central nervous system tolerance using VAS,[1]; [4],limited impact
same,symptom most frequently reported,[1]; [4],Fatigue
same,severe or serious adverse events,"[1]; single oral doses 50, 100, 200 mg, four subjects",No severe or serious adverse events were reported
same,increase in plasma Cmax for each doubling of dose,"[2]; between dose levels 50, 100, 200 mg",10 fold
same,increase in urinary recovery of unchanged sultiame,[2]; between the 50 and 200 mg doses,about 10 fold
same,half-life,"[2]; whole blood, oral, noncompartmental, highest observed, read-out: whole blood t1/2",≤ 312 h
same,Cmax,[2]; [5],20 ng/mL
same,AUC,[2]; [5],1.24 µg·h/mL
same,half-life,"[2]; plasma, single oral dose 50 mg, n = 4, geometric mean (CV%), read-out: t1/2 (converted)",50.8 h
same,Tmax,"[2]; plasma, single oral dose 50 mg, n = 4",7 h
same,Cmax,[2]; [6],180 ng/mL
same,AUC,[2]; [6],8.57 µg·h/mL
same,half-life,"[2]; plasma, single oral dose 100 mg, n = 4, geometric mean (CV%), read-out: t1/2 (converted)",90.9 h
same,Tmax,"[2]; plasma, single oral dose 100 mg, n = 4",2 h
same,Cmax,[2]; [7],1880 ng/mL
same,AUC,[2]; [7],24 µg·h/mL
same,half-life,"[2]; plasma, single oral dose 200 mg, n = 4, geometric mean (CV%), read-out: t1/2 (converted)",40 h
same,Tmax,"[2]; plasma, single oral dose 200 mg, n = 4",1.5 h
same,CL renal,[2]; [8],2.83 mL/min
same,CL renal,[2]; [9],2.33 mL/min
same,CL renal,[2]; [10],2.17 mL/min
same,Cmax,[2]; [11],7910 ng/mL
same,AUC,[2]; [11],3320 µg·h/mL
same,half-life,"[2]; whole blood, single oral dose 50 mg, n = 4, geometric mean (CV%), read-out: t1/2 (converted)",313 h
same,Tmax,"[2]; whole blood, single oral dose 50 mg, n = 4",3 h
same,Cmax,[2]; [12],15900 ng/mL
same,AUC,[2]; [12],4540 µg·h/mL
same,half-life,"[2]; whole blood, single oral dose 100 mg, n = 4, geometric mean (CV%), read-out: t1/2 (converted)",233 h
same,Tmax,"[2]; whole blood, single oral dose 100 mg, n = 4",5.01 h
same,Cmax,[2]; [13],17200 ng/mL
same,AUC,[2]; [13],4530 µg·h/mL
same,half-life,"[2]; whole blood, single oral dose 200 mg, n = 4, geometric mean (CV%), read-out: t1/2 (converted)",253 h
same,Tmax,"[2]; whole blood, single oral dose 200 mg, n = 4",2.5 h
same,CL/F,[2]; [5],40.4 (93) L/h
same,V/F,[2]; [5],2964 (21) L
same,CL/F,[2]; [6],11.7 (25) L/h
same,V/F,[2]; [6],1529 (21) L
same,CL/F,[2]; [7],8.3 (26) L/h
same,V/F,[2]; [7],480 (26) L
same,Recovery unchanged,[2]; [8],1.61 (17) %
same,Recovery unchanged,[2]; [9],5.24 (111) %
same,Recovery unchanged,[2]; [10],16.73 (36) %
same,CL/F,[2]; [11],0.015 (37) L/h
same,V/F,[2]; [11],6.8 (21) L
same,CL/F,[2]; [12],0.008 (34) L/h
same,V/F,[2]; [12],7.4 (21) L
same,CL/F,[2]; [13],0.044 (41) L/h
same,V/F,[2]; [13],16.2 (27) L
same,Plasma‐free fraction,[3],71%

# From PMC6986439, “Sultiame pharmacokinetic profile in plasma and erythrocytes after single oral doses: A pilot study in healthy volunteers” (Pharmacology Research & Perspectives, 2020)
